Experimental findings from ChEMBL document CHEMBL4177685, “Ionic liquid mediated stereoselective synthesis of alanine linked hybrid quinazoline-4(3H)-one derivatives perturbing the malarial reductase activity in folate pathway” (Bioorg Med Chem, 2017) are described below.

For orientation: IC50 means the midpoint of a concentration-inhibition curve.

Converted amounts (≈) assume the structure as drawn.

The subject of series [1] is Vero. Kind of series: Cytotoxicity against African green monkey Vero cells up to 15 ug/ml after 72 hrs by MTT assay. Format: cell-based. To be noted: chlorocebus sabaeus. Background: Formazan colour is commonly taken as a measure of viable cells.
The subject of series [2] is Plasmodium falciparum. Briefly: Antimalarial activity against Plasmodium falciparum in infected in human RBC. Type of series: functional, organism-based. To be noted: Erythrocyte.
Series [3] concerns bovine liver DHFR. Briefly: Selectivity index, ratio of IC50 for African green monkey Vero cells to IC50 for bovine liver DHFR. Type of series: toxicity. Particulars: read-out: Ratio IC50.
For series [4], the target named is T1, Dihydrofolate reductase (Bos taurus, UniProt P00376).
T1 sequence (P00376 whole entry): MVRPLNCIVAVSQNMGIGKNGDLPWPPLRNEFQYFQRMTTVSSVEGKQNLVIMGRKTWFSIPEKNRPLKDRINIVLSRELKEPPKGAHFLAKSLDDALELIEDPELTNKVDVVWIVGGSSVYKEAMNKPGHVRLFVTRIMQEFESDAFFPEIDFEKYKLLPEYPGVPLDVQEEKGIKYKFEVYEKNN
Kind of series: Inhibition of bovine liver DHFR using FH2 as substrate preincubated for 2 mins followed by substrate addition.

Regarding `CC(=O)Nc1ccc(S(=O)(=O)NC(C)c2nc3ccccc3c(=O)n2/N=C/c2ccc(C)cc2)cc1` (stereo not given), the Activity result in series [1] is “Non-Toxic”. Besides, the IC50 was 0.068 µg/mL (≈ 0.135 µM) in series [2] and 165 nM in series [4]. Also, the selectivity ratio in series [3] turned out to be 181.
Compound `CC(=O)Nc1ccc(S(=O)(=O)NC(C)c2nc3ccccc3c(=O)n2/N=C/c2cccc(C)c2)cc1` (stereo not given) came in with an IC50 in series [2] of 0.72 µg/mL (≈ 1.43 µM).
Same read-out and setting: as for `COc1ccccc1/C=N/n1c(C(C)NS(=O)(=O)c2ccc(NC(C)=O)cc2)nc2ccccc2c1=O` (stereo not given), the figure is 0.78 µg/mL (≈ 1.5 µM).
As for `COc1cccc(/C=N/n2c(C(C)NS(=O)(=O)c3ccc(NC(C)=O)cc3)nc3ccccc3c2=O)c1` (stereo not given), half-maximal inhibition in series [2] (IC50) required 1.02 µg/mL (≈ 1.97 µM).
In the case of `CC(=O)Nc1ccc(S(=O)(=O)NC(C)c2nc3ccccc3c(=O)n2/N=C/c2cccc(Cl)c2)cc1` (stereo not given), the IC50 in series [2] is 1.01 µg/mL (≈ 1.93 µM).
On the same count and under the same terms, the result for `CC(=O)Nc1ccc(S(=O)(=O)NC(C)c2nc3ccccc3c(=O)n2/N=C/c2ccccc2)cc1` (stereo not given) reads 1.1 µg/mL (≈ 2.25 µM); that for `CC(=O)Nc1ccc(S(=O)(=O)NC(C)c2nc3ccccc3c(=O)n2/N=C/c2ccccc2Cl)cc1` (stereo not given), 1.05 µg/mL (≈ 2.01 µM).
`CC(=O)Nc1ccc(S(=O)(=O)NC(C)c2nc3ccccc3c(=O)n2/N=C/c2cccc(O)c2)cc1` (stereo not given): the IC50 in series [2] came to 1.01 µg/mL (≈ 2 µM).
For `CC(=O)Nc1ccc(S(=O)(=O)NC(C)c2nc3ccccc3c(=O)n2/N=C/c2ccc(O)cc2)cc1` (stereo not given), in series [2], the half-maximal inhibitory concentration (IC50) amounted to 0.72 µg/mL (≈ 1.42 µM).
Consider `CC(=O)Nc1ccc(S(=O)(=O)NC(C)c2nc3ccccc3c(=O)n2/N=C/c2ccccc2Br)cc1` (stereo not given), for which half-maximal inhibition in series [2] (IC50) was put at 0.78 µg/mL (≈ 1.37 µM).
In series [2], `CC(=O)Nc1ccc(S(=O)(=O)NC(C)c2nc3ccccc3c(=O)n2/N=C/c2ccc(Cl)cc2)cc1` (stereo not given) registered an IC50 of 0.72 µg/mL (≈ 1.37 µM).
As for `CC(=O)Nc1ccc(S(=O)(=O)NC(C)c2nc3ccccc3c(=O)n2/N=C/c2ccc([N+](=O)[O-])cc2)cc1` (stereo not given), the Activity result in series [1] is given as “Non-Toxic”. For the same compound, the IC50 in series [2] is 0.084 µg/mL (≈ 0.157 µM); in series [4], 82.3 nM. The selectivity ratio in series [3] was found to be 341.
As for `CC(=O)Nc1ccc(S(=O)(=O)NC(C)c2nc3ccccc3c(=O)n2/N=C/c2ccccc2O)cc1` (stereo not given), the IC50 in series [2] is 1.05 µg/mL (≈ 2.08 µM).
On to `CC(=O)Nc1ccc(S(=O)(=O)NC(C)c2nc3ccccc3c(=O)n2/N=C/c2ccc(Br)cc2)cc1` (stereo not given), for which the IC50 in series [2] came to 0.67 µg/mL (≈ 1.18 µM).
Consider `CC(=O)Nc1ccc(S(=O)(=O)NC(C)c2nc3ccccc3c(=O)n2/N=C/c2ccc(F)cc2)cc1` (stereo not given), for which the Activity result in series [1] is on record as “Non-Toxic”. Further, the values for the IC50 in series [2] and in series [4] were 0.084 µg/mL (≈ 0.166 µM) and 67 nM, respectively. In addition, the selectivity ratio in series [3] turned out to be 441.
`CC(=O)Nc1ccc(S(=O)(=O)NC(C)c2nc3ccccc3c(=O)n2/N=C/c2ccccc2C)cc1` (stereo not given): the IC50 in series [2] was 1.28 µg/mL (≈ 2.54 µM).
With `CC(=O)Nc1ccc(S(=O)(=O)NC(C)c2nc3ccccc3c(=O)n2/N=C/c2cccc(Br)c2)cc1` (stereo not given), in series [2], the IC50 turned out to be 1.02 µg/mL (≈ 1.8 µM).
With `CC(=O)Nc1ccc(S(=O)(=O)NC(C)c2nc3ccccc3c(=O)n2/N=C/c2ccccc2[N+](=O)[O-])cc1` (stereo not given), the midpoint of inhibition in series [2], the IC50, lay at 0.7 µg/mL (≈ 1.31 µM).
As to `CC(=O)Nc1ccc(S(=O)(=O)NC(C)c2nc3ccccc3c(=O)n2/N=C/c2cccc(F)c2)cc1` (stereo not given), the Activity result in series [1] was “Non-Toxic”. For the same compound, the results for the IC50 in series [2] and in series [4] were 0.092 µg/mL (≈ 0.181 µM) and 53.2 nM, respectively. Further, the selectivity ratio in series [3] is 556.
For `CC(=O)Nc1ccc(S(=O)(=O)NC(C)c2nc3ccccc3c(=O)n2/N=C/c2cccc([N+](=O)[O-])c2)cc1` (stereo not given), in that order: “Non-Toxic”, 0.092 µg/mL (≈ 0.172 µM), 99.1 nM and 283.
`COc1ccc(/C=N/n2c(C(C)NS(=O)(=O)c3ccc(NC(C)=O)cc3)nc3ccccc3c2=O)cc1` (stereo not given) displayed an IC50 in series [2] of 0.67 µg/mL (≈ 1.29 µM).
In series [2], `CC(=O)Nc1ccc(S(=O)(=O)NC(C)c2nc3ccccc3c(=O)n2/N=C/c2ccccc2F)cc1` (stereo not given) yielded an IC50 of 0.7 µg/mL (≈ 1.38 µM).
`CCc1nc(N)nc(N)c1-c1ccc(Cl)cc1` [PYRIMETHAMINE] came in with an IC50 in series [2] of 0.25 µg/mL (≈ 1.01 µM).
The same measure, in the same setting: the result for `C=C[C@H]1CN2CC[C@H]1C[C@H]2[C@H](O)c1ccnc2ccc(OC)cc12` [QUININE] reads 0.268 µg/mL (≈ 0.826 µM).
In turn, `COc1cc(Cc2cnc(N)nc2N)cc(OC)c1OC` [TRIMETHOPRIM] showed an IC50 in series [2] of 0.38 µg/mL (≈ 1.31 µM).
